Experimental data published in US9040715B2 (priority 2008, dated 2015).
≈ marks a conversion by molar mass, not a printed value.

Key:
[1] = tested on: Saccharomyces cerevisiae (YPH501); assay: Anti-fungal/anti-yeast activity: MIC50 (broth microdilution) and MFC; type: cell-based; conditions: for MFC / MIC: Saccharomyces cerevisiae; for Activity (fungicidal/fungistatic) / Ratio MFC/MIC: Saccharomyces cerevisiae (YPH501); for MIC: read-out: MIC-50
Huh7 cells = assay: Neutral red uptake assay (cytotoxicity); type: cell-based, human
Description: The neutral red uptake assay is a cytotoxicity test that is based on the ability of viable cells to incorporate and bind the supra-vital dye neutral red in the lysosomes. This weakly cationic dye penetrates cell membranes by non-ionic passive diffusion and concentrates in the lysosomes, where it binds by electrostatic hydrophobic bonds to anionic and phosphate groups of the lysosomal matrix. The dye is then extracted from the viable cells using an acidified ethanol solution, and the absorbance of the solubilized dye is read. When the cell dies or the pH gradient is reduced, the dye is not retained and consequently, the amount of retained dye is proportional to the number of viable cells. Most primary cells and cell lines can be used for this method. The HepG2 and Huh7, two human hepatoma cell lines, were used for this study. The cells were seeded in 96-well tissue culture plates and treated for 48 hours with the compounds. The plates were then incubated for 2 hours with a medium containing neutral red. The cells were subsequently washed, the dye was extracted in each well, and the absorbance was read using a spectrophotometer (FIG. 3 and Table 11).

Huh7 or HepG2 cell line = assay: MTT assay (cytotoxicity); type: cell-based, human; conditions: 24 hours and 48 hours
Procedure: The MTT assay is a colorimetric assay that measures the reduction of yellow 3-(4,5-dimethylhiazol-2-yl)-2,5-diphenyl tetrazolium bromide (MTT) by mitochondrial succinate dehydrogenase. The MTT enters the cells and passes into the mitochondria where it is reduced to an insoluble, dark purple, formazan product. The cells are then solubilized with an organic solvent (e.g., isopropanol) and the released, solubilized formazan reagent is measured spectrophotometrically. Since reduction of MTT can only occur in metabolically active cells, the level of activity is a measure of the viability of the cells.
Cells of the Huh7 or HepG2 cell line were seeded in a 96 well plate. The plate was incubated overnight at 37° C. in a humidified incubator, 5% CO2. The test compounds were added to the plate. Different concentrations of drug were tested in triplicate along with a negative control. The final volume was adjusted to 100 μl per well. The plate was incubated overnight at 37° C. in a humidified incubator, 5% CO2. After 24 hours and 48 hours, MTT reagent (5 mg/ml, 10 μl/100 μl per well of the 96 well plate) was added and incubated at 37° C. for 3 hours. After 3 hours, 100 μl of the DMSO solution was added to each well and the plate was rocked at room temperature for 1 hour. The plate was then read on a plate reader at […].

Candida glabrata = assay: Anti-fungal/anti-yeast activity: MIC50 (broth microdilution) and MFC; type: cell-based; conditions: for Activity (fungicidal/fungistatic) / Ratio MFC/MIC: Candida glabrata; for MFC / MIC: Nakaseomyces glabratus; for MIC: read-out: MIC-50
Procedure: (§1) Fluconazole, an ergosterol inhibitor, and the beta-1,3-glucan inhibitor micafungin served as controls (See Tables 1-8).
(§2) The minimum inhibitory concentrations resulting in 50% growth inhibition (MIC50) of […] Candida species (C. albicans, C. tropicalis and C. glabrata, C. lusitaniae, C. parapsilosis, and C. apicola) as well as Aspergillus fumigatus to a set of novel synthetic compounds was determined in accordance with the guidelines in CLSI document M27-A2 (Clinical and Laboratory Standards Institute; Wayne, Pa.). The total volume of cells and drug was 100 μL per microtiter well, and each drug was diluted in RPMI to achieve final concentrations of 0.2-100 μg/ml. Uninoculated cultures were used as a reference standard. Stock inoculum suspensions were prepared from 24 hour cultures on YPD (yeast extract/peptone/dextrose) media at 30° C. For MIC determinations, an inoculum of 1.0×10^3 cells of Candidia and 2.0×10^3 cells of Aspergillus per well were used, and cells in diluted drugs were prepared in RPMI-1640 medium. MICs were determined both visually and spectrophotometrically at 24 hours and 48 h at 550 nm using a micro plate reader. The MIC50 endpoint was measured as the lowest drug concentration resulting in a reduction of growth of 50% or more compared with growth of the control.
(§3) The minimum fungicidal concentrations (MFCs) were determined for each drug-isolate-medium combination as follows. After 48 hours of incubation, 100 μL of each drug-isolate-medium combination (2 plates) was subcultured onto YPD plates (100 μL of solution was spread over the YPD plate). […] The plates were then incubated at 30° C. for 48 hours.
(§4) The in vitro fungicidal activities (MFCs) were determined for each drug-isolate-medium combination as follows. After 48 hours of incubation, 10 μL each drug-isolate-medium combination was spotted onto YPD plates (10 μL of each well is spotted sequentially with positive and negative control wells). […] The plates were then incubated at 30° C. for 48 hours.

Candida apicola = assay: as above; type: cell-based; conditions: for Activity (fungicidal/fungistatic) / MIC-50 / Ratio MFC/MIC: Candida apicola; for MFC: Starmerella apicola
Procedure: as §1, §2, §3, §4

Candidia parapsilosis = assay: as above; type: cell-based; conditions: for Activity (fungicidal/fungistatic) / Ratio MFC/MIC: Candidia parapsilosis; for MIC: read-out: MIC-50
Procedure: as §1, §2, §3, §4

Candida tropicalis = assay: as above; type: cell-based; conditions: for MIC: read-out: MIC-50
Procedure: as §1, §2, §3, §4

Candida albicans (CAF-2) = assay: as above; type: cell-based; conditions: for MIC: read-out: MIC-50
Procedure: as §1, §2, §3, §4

Candida lusitaniae = assay: as above; type: cell-based; conditions: for Activity (fungicidal/fungistatic) / Ratio MFC/MIC: Candida lusitaniae; for MFC / MIC: Clavispora lusitaniae; for MIC: read-out: MIC-50
Procedure: as §1, §2, §3, §4

Row | SMILES | MFC [1] [µg/mL] | Activity (fungicidal/fungistatic) [1] | Ratio MFC/MIC [1] | MIC [1] [µg/mL] | Percentage Viability (Huh7 cells; 3.3 μg/mL (approx 1X MIC)) [%] | Percentage Viability (Huh7 cells; 10 μg/mL (approx 3X MIC)) [%] | Percentage Viability (Huh7 cells; 33 μg/mL (approx 10X MIC)) [%] | Percentage Viability (Huh7 cells; 100 μg/mL (approx 30X MIC)) [%] | Toxicity to mammalian cell lines (MTT assay) (Huh7 or HepG2 cell line) | Activity (fungicidal/fungistatic) (Candida glabrata) | Ratio MFC/MIC (Candida glabrata) | MFC (Candida glabrata) [µg/mL] | MIC (Candida glabrata) [µg/mL] | Activity (fungicidal/fungistatic) (Candida apicola) | MIC-50 (Candida apicola) [µg/mL] | Ratio MFC/MIC (Candida apicola) | MFC (Candida apicola) [µg/mL] | MFC (Candidia parapsilosis) [µg/mL] | Activity (fungicidal/fungistatic) (Candidia parapsilosis) | Ratio MFC/MIC (Candidia parapsilosis) | also measured
1 | COc1ccc(CC(=O)NNC(=O)Cn2sc3ccccc3c2=O)cc1 [Compound I-6] | 12.5 (≈ 33.7 µM) | fungicidal (An MFC/MIC ratio of less than four indicates that the compound is fungicidal) | 1 | 12.5 (≈ 33.7 µM) | >100 | >100 | >100 | 67 | minimally toxic | fungicidal (An MFC/MIC ratio of less than four indicates that the compound is fungicidal) | 1 | 12.5 | 12.5 | fungicidal (An MFC/MIC ratio of less than four indicates that the compound is fungicidal) | 12.5 | 1 | 12.5 | 12.5 | fungicidal (An MFC/MIC ratio of less than four indicates that the compound is fungicidal) | 1 | MIC (Candidia parapsilosis): 12.5 µg/mL; Activity (fungicidal/fungistatic) (Candida tropicalis): fungicidal (An MFC/MIC ratio of less than four indicates that the compound is fungicidal); MFC (Candida tropicalis): 12.5 µg/mL; Ratio MFC/MIC (Candida tropicalis): 1; MIC (Candida tropicalis): 12.5 µg/mL; Activity (fungicidal/fungistatic) (Candida albicans (CAF-2)): fungicidal (An MFC/MIC ratio of less than four indicates that the compound is fungicidal); MFC (Candida albicans (CAF-2)): 12.5 µg/mL; Ratio MFC/MIC (Candida albicans (CAF-2)): 1; MIC (Candida albicans (CAF-2)): 12.5 µg/mL; Activity (fungicidal/fungistatic) (Candida lusitaniae): fungicidal (An MFC/MIC ratio of less than four indicates that the compound is fungicidal); Ratio MFC/MIC (Candida lusitaniae): 1; MFC (Candida lusitaniae): 12.5 µg/mL; MIC (Candida lusitaniae): 12.5 µg/mL
2 | CC(=O)NNC(=O)Cn1sc2ccccc2c1=O [Compound I-7] | 12.5 (≈ 47.1 µM) | fungicidal (An MFC/MIC ratio of less than four indicates that the compound is fungicidal) | 1 | 12.5 (≈ 47.1 µM) | >100 | >100 | >100 | >100 | minimally toxic | fungicidal (An MFC/MIC ratio of less than four indicates that the compound is fungicidal) | 2 | 50 | 25 | fungicidal (An MFC/MIC ratio of less than four indicates that the compound is fungicidal) | 12.5 | 1 | 12.5 | 12.5 | fungicidal (An MFC/MIC ratio of less than four indicates that the compound is fungicidal) | 1 | MIC (Candidia parapsilosis): 12.5 µg/mL; Activity (fungicidal/fungistatic) (Candida tropicalis): fungicidal (An MFC/MIC ratio of less than four indicates that the compound is fungicidal); MFC (Candida tropicalis): 12.5 µg/mL; Ratio MFC/MIC (Candida tropicalis): 1; MIC (Candida tropicalis): 12.5 µg/mL; Activity (fungicidal/fungistatic) (Candida albicans (CAF-2)): fungicidal (An MFC/MIC ratio of less than four indicates that the compound is fungicidal); MFC (Candida albicans (CAF-2)): 6.4 µg/mL; Ratio MFC/MIC (Candida albicans (CAF-2)): 1; MIC (Candida albicans (CAF-2)): 6.4 µg/mL; Activity (fungicidal/fungistatic) (Candida lusitaniae): fungicidal (An MFC/MIC ratio of less than four indicates that the compound is fungicidal); Ratio MFC/MIC (Candida lusitaniae): 1; MFC (Candida lusitaniae): 12.5 µg/mL; MIC (Candida lusitaniae): 12.5 µg/mL
